Series [1] has as its target T1, Adenosine receptor A3 (Homo sapiens) (UniProt P0DMS8).
T1 sequence (whole entry): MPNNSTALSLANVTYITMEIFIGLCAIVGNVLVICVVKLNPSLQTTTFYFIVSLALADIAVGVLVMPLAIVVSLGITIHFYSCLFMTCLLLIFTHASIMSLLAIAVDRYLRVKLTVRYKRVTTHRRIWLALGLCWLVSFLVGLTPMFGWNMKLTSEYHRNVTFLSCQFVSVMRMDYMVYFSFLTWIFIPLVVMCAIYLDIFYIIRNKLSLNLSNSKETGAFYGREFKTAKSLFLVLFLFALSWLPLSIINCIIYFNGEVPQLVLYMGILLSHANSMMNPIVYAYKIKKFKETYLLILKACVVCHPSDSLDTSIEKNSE
The experiment in a line: Displacement of [3H]-HEM-ADO from human adenosine receptor A3 expressed in HEK293 cell membranes at 1 uM after 90 mins by liquid scintillation counting method relative to control.

A short description of series [2]: AUC(0 to t) in C57BL/6J mouse at 10 mg/kg, po via gavage by LC-MS/MS analysis. The series is classed as ADME, organism-based. The settings on record: in vivo.
Another series has as its target T2, Adenosine receptor A1 (Homo sapiens, UniProt P30542).
T2 sequence (P30542 whole entry): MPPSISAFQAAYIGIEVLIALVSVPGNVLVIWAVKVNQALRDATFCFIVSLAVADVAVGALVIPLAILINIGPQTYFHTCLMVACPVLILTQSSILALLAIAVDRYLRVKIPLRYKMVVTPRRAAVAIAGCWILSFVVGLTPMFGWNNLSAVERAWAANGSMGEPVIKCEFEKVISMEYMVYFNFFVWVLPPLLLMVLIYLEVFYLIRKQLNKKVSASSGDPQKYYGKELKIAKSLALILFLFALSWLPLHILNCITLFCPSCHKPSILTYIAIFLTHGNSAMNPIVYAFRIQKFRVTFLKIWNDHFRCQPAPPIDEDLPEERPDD
The series can be described thus: Displacement of [3H]DPCPX from human adenosine receptor A1 expressed in HEK293 cell membranes after 90 mins by liquid scintillation counting method. On the technique in general: Displacement assays read how much labelled ligand stays bound in the presence of the test substance.

In series [3] the target is T3, Adenosine receptor A2a (Homo sapiens, UniProt P29274). The experiment in a line: Displacement of [3H]-ZM-241385 from human adenosine receptor A2a expressed in HEK293 cell membranes at 0.1 uM after 90 mins by liquid scintillation counting method relative to control.
The species entered for series [4] is Homo sapiens. The series can be described thus: Selectivity ratio of Ki for human adenosine receptor A2a expressed in HEK293 cell membranes to Ki for human adenosine receptor A2b expressed in HEK293 cell membranes. The series is classed as cell-based.
Series [5] concerns Liver. The experiment in a line: Metabolic stability in mouse liver microsomes assessed as metabolic rate per mg protein preincubated for 5 mins followed by NADPH addition measured up to 30 mins by LC-MS/MS analysis. The series is classed as ADME, microsome. The note with it: 0.5 h.
In series [6] the target is T4, Adenosine receptor A2b (Homo sapiens, UniProt P29275).
T4 sequence (P29275 whole entry): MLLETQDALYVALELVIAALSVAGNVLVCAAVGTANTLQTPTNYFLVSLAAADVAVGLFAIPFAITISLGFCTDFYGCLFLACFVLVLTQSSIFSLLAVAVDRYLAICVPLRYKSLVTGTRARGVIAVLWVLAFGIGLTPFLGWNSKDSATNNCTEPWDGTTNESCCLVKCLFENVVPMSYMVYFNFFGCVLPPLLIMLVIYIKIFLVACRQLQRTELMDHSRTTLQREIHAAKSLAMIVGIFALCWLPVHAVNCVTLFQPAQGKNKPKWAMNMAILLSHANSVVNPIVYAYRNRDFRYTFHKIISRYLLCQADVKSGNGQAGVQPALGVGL
The series can be described thus: Displacement of [3H]-MRS-1754 from human adenosine receptor A2b expressed in HEK293 cell membranes after 90 mins by liquid scintillation counting method.

Series [7] is described as follows: Half life in C57BL/6J mouse at 10 mg/kg, po via gavage by LC-MS/MS analysis. The settings on record: in vivo. In kind it is ADME, organism-based.
Series [8] can be described thus: Cmax in C57BL/6J mouse at 10 mg/kg, po via gavage by LC-MS/MS analysis. The series is classed as ADME, organism-based. Also noted: dose 10 mg/kg, route oral. The note with it: in vivo.
For series [9], the species on record is Homo sapiens. The series can be described thus: Selectivity ratio of Ki for human adenosine receptor A1 expressed in HEK293 cell membranes to Ki for human adenosine receptor A2b expressed in HEK293 cell membranes. The series is classed as cell-based.
For series [10], the target named is T4, Adenosine receptor A2b. The experiment in a line: Antagonist activity at human adenosine receptor A2b expressed in HEK293 cells assessed as inhibition of NECA-induced cAMP level preincubated for 15 mins followed by NECA stimulation for 15 mins by HTRF assay. The series is classed as functional, cell-based. A general note: cAMP levels reflect the balance of adenylyl cyclase and phosphodiesterase activity.

In series [11] the target is T3, Adenosine receptor A2a. The experiment in a line: Displacement of [3H]-ZM-241385 from human adenosine receptor A2a expressed in HEK293 cell membranes after 90 mins by liquid scintillation counting method.
Series [12] is described as follows: Oral bioavailability in C57BL/6J mouse at 10 mg/kg via gavage by LC-MS/MS analysis. In kind it is ADME, organism-based. The settings on record: in vivo.
The target in series [13] is T5, Adenosine receptor A1 (Homo sapiens) (UniProt P30542).
T5 sequence (whole entry): T2 sequence (P30542 whole entry)
The experiment in a line: Displacement of [3H]DPCPX from human adenosine receptor A1 expressed in HEK293 cell membranes at 0.1 uM after 90 mins by liquid scintillation counting method relative to control.

Series [14] relates to Liver. The series can be described thus: Metabolic stability in human liver microsomes assessed as metabolic rate per mg protein preincubated for 5 mins followed by NADPH addition measured up to 30 mins by LC-MS/MS analysis. The settings on record: 0.5 h. The series is classed as ADME, microsome. On the technique in general: Liver microsomes are vesicles of endoplasmic reticulum, rich in cytochrome P450 enzymes.

Another series deals with MDCK. The series can be described thus: Cytotoxicity against MDCK cells. The note with it: Canis lupus familiaris.
The subject of series [15] is Mus musculus. The series can be described thus: Antiallergic activity in Balb/c mouse model of ovalbumin-induced allergic asthma assessed as inhibition of total cell count in BALF in ovalbumin sensitized mouse at 3 mg/kg, ip bid administered 1 hr before OVA challenge for 60 mins followed by test compound treatment 5 hrs after OVA challenge on day 12 to 15 measured on day 15. The series is classed as functional, organism-based.

The nature of series [16]: Inhibition of CYP450 (unknown origin). In kind it is ADME, Homo sapiens.
A further series has as its system HepG2. The series can be described thus: Cytotoxicity against human HepG2 cells.
Series [17] has as its system Mus musculus. The series can be described thus: Antiallergic activity in Balb/c mouse model of ovalbumin-induced allergic asthma assessed as inhibition of NECA-induced airway hyperresponsiveness in ovalbumin sensitized mouse at 3 mg/kg, ip bid administered 1 hr before OVA challenge for 60 mins followed by test compound treatment 5 hrs after OVA challenge on day 12 to 15 measured on day 15. In kind it is functional, organism-based.

Molecules are shown by their SMILES. Calls of active or inactive are those of the source. The rule behind the calls is not given here.

For orientation: inhibition means the percentage by which the read-out fell short of the control. The term AUC(0-t) denotes exposure summed from dosing to a finite time, without extrapolation to infinity. A high value points to more exposure. For orientation: Ki means the equilibrium dissociation constant of an inhibitor or competing ligand from its target. What is called half-life is the time in which the quantity being followed falls by half. Read a high half-life as slow loss. As usually defined, the Cmax is the peak of the concentration-time curve. Usually bioavailability stands for the share of a dose that reaches the circulation, judged against a reference dose that is usually intravenous. A high value points to much systemic uptake. As a reminder, the IC50 is the point on the concentration scale where inhibition reaches its midpoint. Read a low IC50 as inhibition by little substance.

T3 sequence (P29274 whole entry): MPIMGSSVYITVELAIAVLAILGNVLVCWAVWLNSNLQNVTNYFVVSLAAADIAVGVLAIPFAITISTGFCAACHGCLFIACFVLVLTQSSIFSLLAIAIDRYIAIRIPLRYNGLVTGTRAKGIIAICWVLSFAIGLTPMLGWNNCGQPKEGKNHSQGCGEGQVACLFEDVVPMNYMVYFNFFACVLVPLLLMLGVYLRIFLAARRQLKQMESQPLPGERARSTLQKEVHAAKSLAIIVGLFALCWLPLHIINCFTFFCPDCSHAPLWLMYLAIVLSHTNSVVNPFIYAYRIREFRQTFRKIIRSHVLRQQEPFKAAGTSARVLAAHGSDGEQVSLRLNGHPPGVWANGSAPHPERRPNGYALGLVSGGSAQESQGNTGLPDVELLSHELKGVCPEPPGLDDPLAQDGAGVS

Regarding `CCCn1c(=O)c2[nH]c(-c3cnn(CC4CC(=O)N(c5ccc(C(F)(F)F)cc5)C4)c3)nc2n(CCC)c1=O` (stereo not given), the inhibition in series [1] was found to be 0%; on Adenosine receptor A2a [3] it was 52%; in [13], 49%. The same molecule returned an AUC(0-t) in series [2] of 21 µM·h. Moreover, the Ki at Adenosine receptor A1 came to 108 nM; on Adenosine receptor A2b [6] it was 1 nM; on Adenosine receptor A2b [10], 0.9 nM; at Adenosine receptor A2a [11], 124 nM. Also, the Ratio Ki turned out to be 124 in the series listed under Homo sapiens [4] and 108 in the series filed under Homo sapiens [9]. In addition, the Drug metabolism is 0.16 nmol/min/mg in the series with Liver [5] and 0.02 nmol/min/mg in the series with Liver [14]. The molecule further had a half-life in series [7] of 2.4 h. Moreover, the Cmax in series [8] was determined as 16.7 µM. Further, the bioavailability in series [12] was found to be 27%.
`CCCn1c(=O)c2[nH]c(-c3cnn(CC4CC(=O)N(c5ccc(C(F)(F)F)cc5)C4)c3)nc2n(CC)c1=O` (stereo not given): the inhibition in [1] was 4%; at Adenosine receptor A2a [3], 4%; in series [13], 6%. Moreover, the AUC(0-t) in series [2] amounted to 2.9 µM·h. Besides, the Ki at Adenosine receptor A1 amounted to 670 nM; on Adenosine receptor A2b [6], 4 nM; at Adenosine receptor A2b [10], 8 nM; at Adenosine receptor A2a [11], 460 nM. Also, the results for the Ratio Ki in the series filed under Homo sapiens [4] and in the series filed under Homo sapiens [9] were 115 and 167, respectively. Besides, the results for the Drug metabolism in the series on Liver [5] and with Liver [14] were 0.16 nmol/min/mg and 0.08 nmol/min/mg, respectively. The molecule also had a half-life in series [7] of 0.9 h. Further, the Cmax in series [8] came to 3.8 µM. Further, the bioavailability in series [12] was 11%.
With `CCCn1c(=O)c2[nH]c(-c3cnn(CC(=O)N4CCN(c5cccc(C(F)(F)F)c5)CC4)c3)nc2n(CCC)c1=O`, the inhibition stood at 0% in series [1], 37% at Adenosine receptor A2a [3] and 32% in series [13]. In series [2], this molecule returned an AUC(0-t) of 51 µM·h. For the same molecule, the Ki at Adenosine receptor A1 was 177 nM; at Adenosine receptor A2b [6], 1.5 nM; on Adenosine receptor A2b [10], 4 nM; on Adenosine receptor A2a [11] it was 57 nM. In addition, the results for the IC50 (with MDCK; in [16]; in the series with HepG2) were greater than 100000 nM, greater than 25000 nM and greater than 100000 nM, respectively. For the same molecule, the Ratio Ki was found to be 38 in the series filed under Homo sapiens [4] and 118 in the series filed under Homo sapiens [9]. Moreover, the values for the Drug metabolism in the series with Liver [5] and in the series with Liver [14] were 0.04 nmol/min/mg and 0.16 nmol/min/mg, respectively. The same molecule had a half-life in series [7] of 1.9 h. Further, the inhibition result in the series on Mus musculus [15] and with Mus musculus [17] was “Active” throughout. In series [8], the highest level (Cmax) was 44 µM. The molecule also yielded a bioavailability in [12] of 65%.

The values are drawn from ChEMBL document CHEMBL3994582, “A2B adenosine receptor antagonists: Design, synthesis and biological evaluation of novel xanthine derivatives” (Eur J Med Chem, 2017).
